Key:
Assay type in all cases: in vivo, mouse
[1] = test system: Swiss mice with partial portal vein ligation (PPVL); experiment: Spleen weight in partial portal vein ligation (PPVL) model; conditions: for spleen weight: control 0.38, PPVL 0.63; for reduction of spleen weight: control 0.38, PPVL 0.63% body weight
Experimental: (§1) Experiments were carried out using Swiss mice (7 to 10 animals per groups). Portal hypertension was induced using the partial portal vein ligation (PPVL) model. A midline abdominal incision was performed and the portal vein was separated from the surrounding tissue. A ligature (silk cut 5-0) was tied around both portal vein and adjacent 27-gauge blunt-tipped needle. Subsequent removal of the needle yielded a calibrated stenosis of the portal vein. One week after the ligation mice received daily lanifibranor (10 mg/kg or 30 mg/kg) or vehicle in a therapeutic setting for 7 days. The effect of lanifibranor on angiogenesis was evaluated by analyzing hepatic and systemic hemodynamics, serum, hepatic and mesenteric histology. The vascular corrosion casting is a technic allowing the capture of the 3D structure of the vascular bed. Briefly the vascular corrosion casts were obtained by inserting, after euthanasia, a 26-gauge catheter into the ileocolic vein, which was then perfused with Batson n°17 solution. The soft tissue was dissolved overnight in a 25% potassium hydroxide solution. The vascular corrosion casts of the venous mesenteric vasculature were analyzed using μCT.

[2] = test system: Swiss mice with partial portal vein ligation (PPVL); experiment: Corrosion vascular casting of venous mesenteric vasculature analyzed by μCT in PPVL model; conditions: for mesenteric vascular wall thickness: control 20.31, PPVL 37.53
Experimental: as §1

[3] = test system: Swiss mice with partial portal vein ligation (PPVL); experiment: Immunohistochemistry staining for CD34 (angiogenesis and vascular expansion) in mesenteric area in PPVL model
Experimental: as §1, with “μCT. Evaluation of the vasculature system with an immunohistochemistry staining for CD34 allow to highlight the increase of blood vessels in the mesenteric area in PPVL animals. […]” for “μCT.”

[4] = test system: Swiss mice with partial portal vein ligation (PPVL); experiment: Hemodynamic parameters (flow superior mesenteric artery) in partial portal vein ligation (PPVL) model; conditions: lanifibranor 30 mg/kg daily for 7 days, started one week after ligation
Experimental: as §1

O=C(O)CCCc1cc2cc(Cl)ccc2n1S(=O)(=O)c1ccc2ncsc2c1 [lanifibranor, 4-[1-(1,3-benzothiazol-6-ylsulfonyl)-5-chloroindol-2-yl]butanoic acid]
spleen weight ([1]; 10 mg/kg daily for 7 days): 0.57 % body weight
reduction of spleen weight ([1]; 10 mg/kg daily for 7 days): 23.7%
spleen weight ([1]; 30 mg/kg daily for 7 days): 0.49 % body weight
reduction of spleen weight ([1]; 30 mg/kg daily for 7 days): 56.1%
reduction of mesenteric vascular wall thickness ([2]; 10 mg/kg daily for 7 days): 49.8%
mesenteric vascular wall thickness ([2]; 10 mg/kg daily for 7 days): 28.9 µm
reduction of mesenteric vascular wall thickness ([2]; 30 mg/kg daily for 7 days): 52.3%
mesenteric vascular wall thickness ([2]; 30 mg/kg daily for 7 days): 28.5 µm
expansion of the venous mesenteric vasculature ([2]; lanifibranor treatment, data not shown): reduced
reduction of staining for CD34 ([3]; 10 mg/kg daily for 7 days): 69.5%
reduction of staining for CD34 ([3]; 30 mg/kg daily for 7 days): 135.8%
reduction of flow superior mesenteric artery [4]: 51.7%
